From patent publication US8283373B2, “Inhibitors of cytosolic phospholipase A2” (Pfizer Inc., priority 2005, dated 2012)

Assays:
TXB2 = assay: Rat Whole Blood Assay (A23187-stimulated TXB2); format: cell-based; conditions: A23187 5 μM
Protocol: Fresh blood was collected in heparinized tubes by cardiac puncture of male Sprague-Dawley rats. Aliquots of blood (0.6 mL) were incubated with either 6 μL solvent (DMSO), or 6 μL of test compounds at various concentrations for 15 minutes at 37° C. This was followed by incubation of the blood with 6 μL of calcium ionophore, A23187 (Sigma C-7522) diluted in DMSO for 10 min at 37° C. The final concentration of A23187 was 5 μM. DMSO (6 μL) was added in the unstimulated controls. The reactions were stopped by mixing 60 μL cold EDTA to give a final concentration of 20 mM. The blood was centrifuged at 6,500 rpm for 10 min on a microcentrifuge to obtain plasma. A 70 μL aliquot of plasma was mixed with 400 μL cold methanol for protein precipitation. After incubation at −80° C. for 30 min, the supernatant was obtained by centrifuging at 6,500 rpm for 10 min, and was assayed for TXB2 according to the manufacturer's procedure (Assay Designs, Inc.'s ELISA kit #900-002).

cPLA2α = target: T1, cPLA2α (Homo sapiens, UniProt P47712); assay: GLU Micelle Assay; format: biochemical
T1 sequence (P47712 1-749): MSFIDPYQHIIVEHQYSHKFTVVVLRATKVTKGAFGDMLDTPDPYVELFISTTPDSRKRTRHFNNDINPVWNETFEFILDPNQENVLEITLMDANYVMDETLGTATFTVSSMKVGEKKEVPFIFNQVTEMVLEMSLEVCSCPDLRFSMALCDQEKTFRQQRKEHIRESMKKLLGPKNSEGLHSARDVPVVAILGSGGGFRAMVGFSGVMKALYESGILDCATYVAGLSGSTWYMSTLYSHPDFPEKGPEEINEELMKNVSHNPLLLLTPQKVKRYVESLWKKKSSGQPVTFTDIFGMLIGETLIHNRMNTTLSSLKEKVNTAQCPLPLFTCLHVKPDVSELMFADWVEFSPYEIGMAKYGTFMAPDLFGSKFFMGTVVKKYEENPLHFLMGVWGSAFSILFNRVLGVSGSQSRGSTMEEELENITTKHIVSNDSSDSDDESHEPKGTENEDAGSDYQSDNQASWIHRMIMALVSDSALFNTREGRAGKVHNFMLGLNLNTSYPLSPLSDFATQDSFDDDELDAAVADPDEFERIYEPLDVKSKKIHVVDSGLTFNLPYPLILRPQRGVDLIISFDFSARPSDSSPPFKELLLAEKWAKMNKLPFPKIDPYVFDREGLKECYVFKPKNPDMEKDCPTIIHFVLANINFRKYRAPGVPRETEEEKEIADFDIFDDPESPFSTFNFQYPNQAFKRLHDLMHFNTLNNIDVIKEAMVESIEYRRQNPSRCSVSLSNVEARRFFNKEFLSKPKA
Protocol: The assay was carried in a 96-well format using a fluorescent plate reader with a 355 nm excitation filter and a 460 nm emission filter (Lab Systems Fluoroscan II, Helsinki, Finland). The assay buffer contained 940 μM Triton X-100, 50 mM Hepes pH 7.4, 0.3 mM EDTA, 1 mM CaCl2 and 300 mM KCl. DTPC (1,2-O-tetradecyl-sn-glycero-3-phosphocholine, Avanti) at a final concentration of 120 μM was added the day of the experiment and GLU (7-Hydroxycoumarinyl-γ-linolenate, Biomol Research Lab, Inc.) at a final concentration of 90 μM was added immediately prior to each assay.
Compounds (10 μL) dissolved in DMSO were placed in duplicate wells of a black 96-well plate. Wells corresponding to the positive and negative controls contained DMSO without inhibitors. Just prior to the experiment, 200 μL assay buffer containing 90 μM GLU and 120 μM DTPC was added to all wells in the assay plate. Assay buffer (50 μL) was added to the negative, and 50 μL cPLA2α solution ([…] in assay buffer) was added to all other wells to initiate the reaction. The final concentration of enzyme was 1 μg/ml. The content of each well was mixed gently during the addition of the enzyme, and the plate was rapidly transferred to the fluorescent plate reader. The increase in fluorescence was read every 4 min for 84 min. The slope of the resulting line was determined and the inhibition was calculated using the equation below: Percent Inhibition=[1−(slope with inhibitor−slope negative control)/(slope positive control−slope negative control)]×100 Rat Whole Blood Assay

IC50 (TXB2; Rattus norvegicus) [µM]	IC50 (cPLA2α) [µM]	Structure (SMILES)	IC50 (TXB2) [µM]
0.02	0.024	O=C(O)c1ccc(CCCc2c(CCNS(=O)(=O)Cc3c(Cl)cccc3Cl)n(C(c3ccccc3)c3ccccc3)c3ccc(Cl)cc23)cc1 [Example 8, 4-{3-[5-chloro-2-(2-{[(2,6-dichlorobenzyl)sulfonyl]amino}ethyl)-1-(diphenylmethyl)-1H-indol-3-yl]propyl}benzoic acid]	
0.38	0.28	CN(CCc1c(CCCc2ccc(C(=O)O)cc2)c2cc(Cl)ccc2n1C(c1ccccc1)c1ccccc1)S(=O)(=O)Cc1ccccc1C(F)(F)F [Example 11, 4-(3-{5-chloro-1-(diphenylmethyl)-2-[2-(methyl{[2-(trifluoromethyl)benzyl]sulfonyl}amino)ethyl]-1H-indol-3-yl}propyl)benzoic acid]	
0.04	0.021	O=C(O)c1ccc(CCCc2c(CCNS(=O)(=O)Cc3c(C(F)(F)F)cccc3C(F)(F)F)n(C(c3ccccc3)c3ccccc3)c3ccc(Cl)cc23)cc1 [Example 12, 4-{3-[2-[2-({[2,6-bis(trifluoromethyl)benzyl]sulfonyl}amino)ethyl]-5-chloro-1-(diphenylmethyl)-1H-indol-3-yl]propyl}benzoic acid]	

Second part, the molecule before the results:

Structure (SMILES)	IC50 (TXB2; Rattus norvegicus) [µM]	IC50 (cPLA2α) [µM]	IC50 (TXB2) [µM]
O=C(O)c1ccc(OCCc2c(CCNS(=O)(=O)Cc3ccccc3OCc3ccccc3)n(C(c3ccccc3)c3ccccc3)c3ccc(Cl)cc23)cc1 [Example 1, 4-{2-[2-[2-({[2-(benzyloxy)benzyl]sulfonyl}amino)ethyl]-5-chloro-1-(diphenylmethyl)-1H-indol-3-yl]ethoxy}benzoic acid]	0.14	0.26	
O=C(O)c1ccc(OCCc2c(CCNS(=O)(=O)Cc3ccccc3O)n(C(c3ccccc3)c3ccccc3)c3ccc(Cl)cc23)cc1 [Example 2, 4-{2-[5-chloro-1-(diphenylmethyl)-2-(2-{[(2-hydroxybenzyl)sulfonyl]amino}ethyl)-1H-indol-3-yl]ethoxy}benzoic acid]	0.12	0.19	
O=C(O)c1ccc(OCCc2c(CCNS(=O)(=O)Cc3c(Br)cccc3Br)n(C(c3ccccc3)c3ccccc3)c3ccc(Cl)cc23)cc1 [Example 3, 4-{2-[5-chloro-2-(2-{[(2,6-dibromobenzyl)sulfonyl]amino}ethyl)-1-(diphenylmethyl)-1H-indol-3-yl]ethoxy}benzoic acid]	0.06	0.054	
Cc1cccc([N+](=O)[O-])c1CS(=O)(=O)NCCc1c(CCOc2ccc(C(=O)O)cc2)c2cc(Cl)ccc2n1C(c1ccccc1)c1ccccc1 [Example 4, 4-(2-{1-benzhydryl-5-chloro-2-[2-methyl-6-nitro-phenylmethanesulfonylamino)-ethyl-1-H-indol-3-yl}ethoxy)-benzoic acid]		0.054	0.02
O=C(O)c1ccc(OCCc2c(CCNS(=O)(=O)Cc3ccccc3C(F)(F)F)n(C(c3ccccc3)c3ccccc3)c3ccc(Cl)cc23)cc1 [Example 5, 4-(2-{5-chloro-1-(diphenylmethyl)-2-[2-({[2-(trifluoromethyl)benzyl]sulfonyl}amino)ethyl]-1H-indol-3-yl}ethoxy)benzoic acid]	0.02	0.026	
O=C(O)c1ccc(OCCc2c(CCNS(=O)(=O)Cc3c(F)cccc3C(F)(F)F)n(C(c3ccccc3)c3ccccc3)c3ccc(Cl)cc23)cc1 [Example 6, 4-(2-{5-chloro-1-(diphenylmethyl)-2-[2-({[2-fluoro-6-(trifluoromethyl)benzyl]sulfonyl}amino)ethyl]-1H-indol-3-yl}ethoxy)benzoic acid]	0.08	0.092	
O=C(O)c1ccc(CCCc2c(CCNS(=O)(=O)Cc3c(Br)cccc3Br)n(C(c3ccccc3)c3ccccc3)c3ccc(Cl)cc23)cc1 [Example 7, 4-{3-[5-chloro-2-(2-{[(2,6-dibromobenzyl)sulfonyl]amino}ethyl)-1-(diphenylmethyl)-1H-indol-3-yl]propyl}benzoic acid]	0.03	0.018	
Cc1cccc([N+](=O)[O-])c1CS(=O)(=O)NCCc1c(CCCc2ccc(C(=O)O)cc2)c2cc(Cl)ccc2n1C(c1ccccc1)c1ccccc1 [Example 9]		0.022	0.02
